Laboratory results as given in paper PMC8952364, “Polyphenols as Inhibitors of Antibiotic Resistant Bacteria—Mechanisms Underlying Rutin Interference with Bacterial Virulence” (Pharmaceuticals, 2022).
Values after ≈ are worked out from the molar mass of the structure shown. Read-outs that look alike come from different tables or passages of the source.

Key:
[1] = tested on: Methicillin resistant S. aureus IBRS MRSA 011; assay: Antimicrobial microdilution assay (MIC/MBC); format: cell-based, Staphylococcus aureus; settings: Staphylococcus aureus, MRSA; for MIC: 37 °C, 24 h, read-out: MIC; for MBC: subcultivation, 24 h at 37 °C, read-out: MBC
Procedure: (§1) The bacterial suspension (0.5 Mc Farland) was prepared, and twenty-fold dilutions of these suspensions were mixed in a 1:10 ratio with the corresponding polyphenol dilution (0.0039–1 mg/mL). Microtiter plates were incubated at 37 °C for 24 h. The lowest concentrations without visible growth (under a binocular microscope) were defined as MICs. The bactericidal concentrations (MBCs) were determined by serial subcultivation of 2 μL of the well’s content and further incubation for 24 h at 37 °C. Streptomycin (SigmaAldrich, Darmstadt, Germany) was used as a positive control. The polyphenols were obtained from Extrasynthese, Rhone, France (rutin, isoquercitrin) and SigmaAldrich, Germany (hesperetin, hesperidin, naringenin, naringin, taxifolin, morin, chlorogenic acid, ferulic acid, p-coumaric acid, and gallic acid). The stock compounds were prepared in ethanol (30%), and adequate ethanol concentrations were used as the negative control in the assays. Experiments were done in triplicate.

P. aeruginosa IBRS P001 = assay: Antimicrobial microdilution assay (MIC/MBC); format: cell-based, Pseudomonas aeruginosa; settings: Pseudomonas aeruginosa, IBRSP001; for MIC: 37 °C, 24 h, read-out: MIC; for MBC: subcultivation, 24 h at 37 °C, read-out: MBC
Procedure: as §1

P. aeruginosa MMA83 = assay: Antimicrobial microdilution assay (MIC/MBC); format: cell-based, Pseudomonas aeruginosa; settings: for MIC: 37 °C, 24 h, read-out: MIC; for MBC: subcultivation, 24 h at 37 °C
Procedure: as §1

E. coli IBRS E003 = assay: Antimicrobial microdilution assay (MIC/MBC); format: cell-based, Escherichia coli; settings: Escherichia coli, IBRSE003; for MIC: 37 °C, 24 h, read-out: MIC; for MBC: subcultivation, 24 h at 37 °C, read-out: MBC
Procedure: as §1

E. coli IMD989 = assay: Antimicrobial microdilution assay (MIC/MBC); format: cell-based, Escherichia coli; settings: Escherichia coli, IMD989; for MIC: 37 °C, 24 h, read-out: MIC; for MBC: subcultivation, 24 h at 37 °C, read-out: MBC
Procedure: as §1

A. baumannii 6077/12 = assay: Antimicrobial microdilution assay (MIC/MBC); format: cell-based, Acinetobacter baumannii; settings: Acinetobacter baumannii, 6077/12; for MIC: 37 °C, 24 h, read-out: MIC; for MBC: subcultivation, 24 h at 37 °C, read-out: MBC
Procedure: as §1

A. baumannii S2/2 = assay: Antimicrobial microdilution assay (MIC/MBC); format: cell-based, Acinetobacter baumannii; settings: Acinetobacter baumannii, S2/2; for MIC: 37 °C, 24 h, read-out: MIC; for MBC: subcultivation, 24 h at 37 °C, read-out: MBC
Procedure: as §1

K. pneumoniae IT977 = assay: Antimicrobial microdilution assay (MIC/MBC); format: cell-based, Klebsiella pneumoniae; settings: Klebsiella pneumoniae, IT977; for MIC: 37 °C, 24 h, read-out: MIC; for MBC: subcultivation, 24 h at 37 °C, read-out: MBC
Procedure: as §1

K. pneumoniae Ni9 = assay: Antimicrobial microdilution assay (MIC/MBC); format: cell-based, Klebsiella pneumoniae; settings: Klebsiella pneumoniae, NI9; for MIC: 37 °C, 24 h, read-out: MIC; for MBC: subcultivation, 24 h at 37 °C, read-out: MBC
Procedure: as §1

A. xylosoxidans 37F = assay: Antimicrobial microdilution assay (MIC/MBC); format: cell-based, Achromobacter xylosoxidans; settings: Achromobacter xylosoxidans, 37F; for MIC: 37 °C, 24 h, read-out: MIC; for MBC: subcultivation, 24 h at 37 °C, read-out: MBC
Procedure: as §1

S. infantis 1371/1 = assay: Antimicrobial microdilution assay (MIC/MBC); format: cell-based, Salmonella Infantis; settings: Salmonella enterica, 1371/1; for MIC: 37 °C, 24 h, read-out: MIC; for MBC: subcultivation, 24 h at 37 °C, read-out: MBC
Procedure: as §1

HaCaT cells = assay: Cytotoxicity in HaCaT cell line (crystal violet assay); format: cell-based, human; settings: HaCaT; for IC50: Homo sapiens, 24 h treatment, crystal violet, read-out: IC50 (compound concentration that inhibited 50% of the cell growth)
Procedure: For determination of the polyphenols’ cytotoxic effect, a crystal violet assay was used, with modifications. The cytotoxic effect of polyphenols was analyzed on spontaneously immortalized human skin keratinocytes (HaCaT, AddexBio No. T0020001, San Diego, CA, USA) cell lines. […] Cells (1 × 10^4 cells/well) were seeded in a 96-well plate (Sarstedt, Nümbrecht, Germany) 24 h before treatment. […] Cells were incubated with the compounds for 24 h. […] After crystal violet was removed, the plates were washed in a stream of tap water and left to air-dry at room temperature for 24 h. The absorbance was measured in a microplate reader (Multiskan™ FC Microplate Photometer, Thermo Scientific™) at 590 nm. The results were expressed as IC50 value in μg/mL. The criterion used to categorize the cytotoxic activity polyphenols was as follows: […] All analyses were performed in triplicate; each replicate was also quantified three times. Data were expressed as mean standard deviation, where applicable.

[2] = tested on: E. coli (fluoroquinolones and ampicillin-resistant); design: method as in A previous investigation; settings: ref A previous investigation; cited from earlier work
[3] = tested on: P. aeruginosa IBRS P001 biofilm; assay: Crystal violet antibiofilm assay (biofilm formation); format: cell-based, Pseudomonas aeruginosa; settings: MIC and sub-MIC, 24 h, crystal violet, Figure 1
Procedure: After incubation, each well was washed twice with sterile PBS (phosphate-buffered saline, pH 7.4) and fixed with methanol for 10 min. After removal of methanol the plate was air-dried. The biofilm was stained with 0.1% crystal violet (Bio-Merieux, Marcy l’Etoile, France) for 30 min. The plate was washed with water, air dried, and the stain was dissolved with 200 μL of 96% ethanol (Zorka, Sabac, Serbia). The absorbance was read at 620 nm on a Multiskan™ FC microplate photometer (Thermo Scientific™, Waltham, MA, USA). The results are presented as biofilm forming capacity (%) compared to control.

P. aeruginosa MTCC 2488 = tested on: P. aeruginosa MTCC 2488; design: method as in PMID 32057619; settings: cited from earlier work
[4] = Pseudomonas aeruginosa, MMA83, read-out: MBC

Row | Structure (SMILES) | MIC [1] [µg/mL] | MBC [1] [µg/mL] | MIC (P. aeruginosa IBRS P001) [µg/mL] | MBC (P. aeruginosa IBRS P001) [µg/mL] | MIC (P. aeruginosa MMA83; Pseudomonas aeruginosa, MMA83) [µg/mL] | MBC (P. aeruginosa MMA83; [4]) [µg/mL] | MIC (E. coli IBRS E003) [µg/mL] | MBC (E. coli IBRS E003) [µg/mL] | MIC (E. coli IMD989) [µg/mL] | MBC (E. coli IMD989) [µg/mL] | MIC (A. baumannii 6077/12) [µg/mL] | MBC (A. baumannii 6077/12) [µg/mL] | MIC (A. baumannii S2/2) [µg/mL] | MBC (A. baumannii S2/2) [µg/mL] | MIC (K. pneumoniae IT977) [µg/mL] | MBC (K. pneumoniae IT977) [µg/mL] | MIC (K. pneumoniae Ni9) [µg/mL] | MBC (K. pneumoniae Ni9) [µg/mL] | MIC (A. xylosoxidans 37F) [µg/mL] | MBC (A. xylosoxidans 37F) [µg/mL] | other results
1 | O=C(O)/C=C/c1ccc(O)cc1 [p-Coumaric Acid, p-coumaric acid] | 500 (≈ 3.05 mM) | 1000 (≈ 6.09 mM) | 500 (≈ 3.05 mM) | 1000 (≈ 6.09 mM) | 500 (≈ 3.05 mM) | 1000 (≈ 6.09 mM) | > 1000 | > 1000 | 1000 (≈ 6.09 mM) | 1000 (≈ 6.09 mM) | 500 (≈ 3.05 mM) | 500 (≈ 3.05 mM) | 500 (≈ 3.05 mM) | 500 (≈ 3.05 mM) | 1000 (≈ 6.09 mM) | 1000 (≈ 6.09 mM) | 1000 (≈ 6.09 mM) | 1000 (≈ 6.09 mM) | 1000 (≈ 6.09 mM) | 1000 (≈ 6.09 mM) | MIC (S. infantis 1371/1): 1000 µg/mL (≈ 6.09 mM); MBC (S. infantis 1371/1): 1000 µg/mL (≈ 6.09 mM); cytotoxicity category (HaCaT cells; maximal tested concentrations (1 mg/mL)): no cytotoxicity (IC50 > 501 µg/mL = no cytotoxicity); IC50 (HaCaT cells): > 1000 µg/mL; MIC [2]: 1000 µg/mL (≈ 6.09 mM)
2 | C[C@@H]1O[C@@H](O[C@H]2[C@H](Oc3cc(O)c4c(c3)O[C@H](c3ccc(O)cc3)CC4=O)O[C@H](CO)[C@@H](O)[C@@H]2O)[C@H](O)[C@H](O)[C@H]1O [Naringin, naringin] | 500 (≈ 0.861 mM) | 1000 (≈ 1.72 mM) | 250 (≈ 0.431 mM) | 500 (≈ 0.861 mM) | > 1000 | > 1000 | > 1000 | > 1000 | > 1000 | > 1000 | > 1000 | > 1000 | > 1000 | > 1000 | > 1000 | > 1000 | > 1000 | > 1000 | > 1000 | > 1000 | MBC (P. aeruginosa MMA83): >1000 µg/mL; MIC (S. infantis 1371/1): > 1000 µg/mL; MBC (S. infantis 1371/1): > 1000 µg/mL; reduction of biofilm formation (biomass), in words [3]: not significantly altered; IC50 (HaCaT cells): > 1000 µg/mL; Bactericidal concentration (P. aeruginosa MTCC 2488): 1.4 mg/mL; IC50 (P. aeruginosa MTCC 2488): 570 µg/mL (≈ 0.982 mM)
